Reference: patent publication US20150094364A1, “METHOD OF USING THEAFLAVIN” (priority 2013, published 2015)
Where “and” joins values, the source holds several entries; their conditions need not be identical. Equal values may be shown once.

Columns and labels:
Format in all cases: in vivo, Wistar rats
[1] = Body weight, liver weight and liver/body ratio in ethanol-fed rats (ALD model); details: ethanol 6000 mg/kg BW per day; for Liver Weight / Liver body ratio: 30 days; for BW (ending): end of 30-day study
Method: (§1) 6-week old male rats (Wistar rats) were stabilized and then divided into 5 groups with 10 rats per group (n=10). Rats overdosed with ethanol were used as an experimental model for human ALD. Four groups of rats were fed with ethanol at a dose of 6000 mg/kg BW (50% ethanol at 12 ml/kg BW) per day for 30 days. These four groups were divided into positive control, theaflavin (low), theaflavin (mid), and theaflavin (high). Theaflavin (capsule, Xiayie) was also fed to rat at a dose of 83 mg/kg BW (low), 250 mg/kg (mid), and 500 mg/kg (high). In addition, Fifth group was fed with water as a negative control. Animals were sacrificed after the 30-day study and livers were collected for further analyses.

[2] = tested on: Rats overdosed with ethanol (experimental model for human ALD); experiment: Liver markers MDA, GSH and TG in ethanol-fed rats (ALD model); details: for GSH / MDA / TG: rat liver, ethanol 30 days
Method: as §1
Three liver markers, i.e., malondialdehyde (MDA, a marker of oxidative stress), glutathione (GSH), and triglyceride (TG) were measured.

[3] = tested on: Rats overdosed with ethanol (experimental model for human ALD); experiment: Liver histopathology (liver cell fat rating, fat color rating) in ethanol-fed rats (ALD model); parameters: Liver cell fat rating / Liver cell fat rating, sum / Fat color rating: scale not given here; details: for Fat color rating: n=10; for Liver cell fat rating: individual animals (ID 1-10); for Liver cell fat rating, sum: sum of 10 animals
Method: as §1

O=c1c(O)cc([C@H]2Oc3cc(O)cc(O)c3C[C@H]2O)cc2c([C@H]3Oc4cc(O)cc(O)c4C[C@H]3O)cc(O)c(O)c12 [Theaflavin, theaflavin]
Liver Weight ([1]; 83 mg/kg BW theaflavin): 9.19 ± 0.88 g | Liver body ratio ([1]; 83 mg/kg BW theaflavin): 2.79 ± 0.22% | BW (ending) ([1]; 83 mg/kg BW theaflavin): 329.1 ± 19.17 g | BW (intermediate) ([1]; 83 mg/kg BW theaflavin): 256.1 ± 21.23 g | Liver Weight ([1]; 250 mg/kg BW theaflavin): 9.83 ± 1.12 g | Liver body ratio ([1]; 250 mg/kg BW theaflavin): 2.86 ± 0.23% | BW (ending) ([1]; 250 mg/kg BW theaflavin): 342.9 ± 21.99 g | BW (intermediate) ([1]; 250 mg/kg BW theaflavin): 266.3 ± 17.10 g | Liver Weight ([1]; 500 mg/kg BW theaflavin): 10.34 ± 1.32 g | Liver body ratio ([1]; 500 mg/kg BW theaflavin): 2.84 ± 0.27% | BW (ending) ([1]; 500 mg/kg BW theaflavin): 365.2 ± 44.39 g | BW (intermediate) ([1]; 500 mg/kg BW theaflavin): 272.3 ± 17.27 g | GSH ([2]; 83 mg/kg BW theaflavin): 13.86 ± 1.80 mg/g | MDA ([2]; 83 mg/kg BW theaflavin): 1.32 ± 0.13 nmol/mg | TG ([2]; 83 mg/kg BW theaflavin): 0.62 ± 0.21 mmol/L | GSH ([2]; 250 mg/kg BW theaflavin): 13.91 ± 1.66 mg/g | MDA ([2]; 250 mg/kg BW theaflavin): 1.24 ± 0.49 nmol/mg | TG ([2]; 250 mg/kg BW theaflavin): 0.65 ± 0.14 mmol/L | GSH ([2]; 500 mg/kg BW theaflavin): 14.43 ± 0.69 mg/g | MDA ([2]; 500 mg/kg BW theaflavin): 1.23 ± 0.08 nmol/mg | TG ([2]; 500 mg/kg BW theaflavin): 0.64 ± 0.13 mmol/L | MDA when compared to positive controls ([2]; theaflavin (high) 500 mg/kg): lower | TG when compared to positive controls ([2]; theaflavin (high) 500 mg/kg): lower | MDA when compared to positive controls ([2]; theaflavin (mid) 250 mg/kg): lower | TG when compared to positive controls ([2]; theaflavin (mid) 250 mg/kg): lower | Fat color rating ([3]; 83 mg/kg BW theaflavin): 1.60 ± 0.70 | Fat color rating ([3]; 250 mg/kg BW theaflavin): 1.40 ± 0.70 | Fat color rating ([3]; 500 mg/kg BW theaflavin): 1.30 ± 0.82 | Liver cell fat rating ([3]; theaflavin (high) 500 mg/kg, 500 mg/kg): 1 (6×) and 0 and 3 and 2 (2×) | Liver cell fat rating ([3]; theaflavin (low) 83 mg/kg BW, 83 mg/kg): 1 (5×) and 3 and 2 (4×) | Liver cell fat rating ([3]; theaflavin (mid) 250 mg/kg, 250 mg/kg): 1 (4×) and 0 and 2 (5×) | Liver cell fat rating, sum ([3]; theaflavin (high) 500 mg/kg): 13 | Liver cell fat rating, sum ([3]; theaflavin (low) 83 mg/kg BW): 16 | Liver cell fat rating, sum ([3]; theaflavin (mid) 250 mg/kg): 14 | Fat color rating compared to positive control ([3]; theaflavin (high) 500 mg/kg): different readings | Liver cell fat rating compared to positive control ([3]; theaflavin (high) 500 mg/kg): different readings | Fat color rating compared to positive control ([3]; theaflavin (mid) 250 mg/kg): different readings | Liver cell fat rating compared to positive control ([3]; theaflavin (mid) 250 mg/kg): different readings
